Test results as given in patent publication US10098899B2, “Drug with activity against the herpes virus family” (priority 2010, dated 2018).

Experiments:
[1] = tested on: type I herpes simplex virus (strain EC); test: Herpetic pneumonia in white mice: histologic (morphometric) examination of lungs; assay type: in vivo, white non-pedigree mice
Herpes virus of type I = test: Antiviral activity in Vero cells, unaltered cells, herpes virus of type I; assay type: cell-based; details: 50 mg/1 of preparation; for Number of unaltered cells: non-infected reference 10000
Description: (§1) Determining Activity Against Herpes Viruses of Type 1 and 11.
(§2) Herpes simplex virus (strain EC) was grown in Vero cells cultured in MEM medium with the addition of 0.2% bovine serum and 50 mg/1 of the preparations under study.

[2] = tested on: type I herpes simplex virus (strain EC); test: Herpetic pneumonia in white mice: virus titer in lungs (titration on Vero cells); assay type: in vivo, white non-pedigree mice; details: for Virus titer in lungs of mice on day 3 after the infection: day 3 after infection, 50 mg/kg intragastrically, 24 h and 1 h prior to and 24 h and 48 h after infection
Description: Antiviral activity of the inventive substance was determined using the model of pneumonia in white mice caused by type I herpes simplex virus.
Herpes simplex virus of type I (strain EC) was accumulated in Vero cells cultured in MEM medium with the addition of 0.2% bovine serum, 50 μg/ml of gentamicin. Virus titration was performed on Vero cells cultured in 96-well plates. Results were recorded after a pronounced cytopathic effect (CPE) appeared in virus control. The degree of intactness of the cellular monolayer was assessed visually, virus titer was calculated as the reciprocal value of Briggs logarithm of the largest dilution of the source material that is still able to produce visually notable manifestations of CPE in the cell culture (CTD50).
For assessing the virus inhibiting action of the preparations, white non-pedigree mice weighing 12-15 g (“Rappolovo” farm, Leningrad Region) were infected intranasally under a light ether anaesthesia with the herpes simplex virus in the dosage of 106 (CTD50)/0.05 ml. The preparation under study was administered intragastrically in the dosage of 50 mg/kg of weight according to a medical-preventive scheme (24 h and 1 h prior to infection, and 24 h and 48 h after the animals were infected). On day 3 the lungs of the infected animals were removed, homogenized in the presence of 10-fold volume of phosphate buffer and then 10-fold dilutions from 10-1 to 10-6 were prepared thereof. Dilutions of the lungs homogenate were used for infecting the intact culture of Vero cells and for titration of virus progeny. Positive reference was represented by lungs of mice that instead of the studied preparation received physiological solution by intragastric administration, whereas negative reference was represented by lungs of mice that received aciclovir in the dosage of 50 mg/kg of weight according to the same scheme. Each experimental group consisted of 10 animals.

Herpes virus of type II = test: Antiviral activity in Vero cells, unaltered cells, herpes virus of type II; assay type: cell-based; details: for Number (%) of unaltered cells, percent / Number of unaltered cells: Herpes virus of type II, Vero cells, 50 mg/1 of preparation; for Number of unaltered cells: non-infected reference 10000
Description: as §1, §2

| Molecule | Area of an inflammation focus in section ([1]; term 2 days) | Number of inflammation foci in one animal ([1]; term 2 days) | Area of an inflammation focus in section ([1]; term 4 days) | Number of inflammation foci in one animal ([1]; term 4 days) | Area of an inflammation focus in section ([1]; term 6 days) | Number of inflammation foci in one animal ([1]; term 6 days) | Number (%) of unaltered cells, percent (Herpes virus of type I) | Number of unaltered cells (Herpes virus of type I) | virus-inhibitory activity at the model of herpetic pneumonia in vivo (in words) ([2]; compared with aciclovir at the same dosage) | Virus titer in lungs of mice on day 3 after the infection [2] | Number (%) of unaltered cells, percent (Herpes virus of type II) | Number of unaltered cells (Herpes virus of type II) | antiviral activity compared with aciclovir (in words) (Herpes virus of type II; in particular against the herpes virus of type II) |
| --- | --- | --- | --- | --- | --- | --- | --- | --- | --- | --- | --- | --- | --- |
| (2,6-dichlorophenyl)amide salt of carbopentoxysulfanilic acid [The inventive substance] | 47 ± 7.3 | 3 | 49 ± 12.1 | 2 | 14 ± 5.5 | 1 | (80%) | 8000 | statistically significant virus-inhibitory activity | 1.0 ± 0.11 Lg CTD50 | (90%) | 9000 | significantly exceeds that of the aciclovir |
| Nc1nc2c(ncn2COCCO)c(=O)[nH]1 [Aciclovir, 2-amino-1,9-dihydro-9-[(2-hydroxyethoxy)methyl]-6H-purine-6-on, reference compound] | 55 ± 9.4 | 8 | 58 ± 14.7 | 3 | 24 ± 6.4 | 3 | (65%) | 7000 |  | 1.4 ± 0.34 Lg CTD50 | (70%) | 7000 |  |
